Test results published in patent publication US5382586A, “Aryl (or heteroaryl)piperazinylalkylazole derivatives, their preparation and their application as medicaments” (priority 1991, dated 1995).

System: mice, abstinence syndrome induced by cocaine, diazepam, alcohol or nicotine
Assay: light box/dark box test: inhibition of the abstinence syndrome
Assay type: in vivo, mouse
Design: Time in box, dark (D) / Latent period L-D: unit not given here
Method: The light box/dark box test described by B. Costall et al. (J. Phar. Pharmacol., 1988, 40: 494-500) is used. The mouse is placed in the light zone of a box divided into two compartments, one brightly illuminated, the light box, and the other with little illumination, the dark box.
1) The number of times the mouse stands up on the hind paws in each compartment during a 5 minute period is counted (see Column 1 of Table V).
2) The activity in each compartment is given by counting the number of crossings through the squares which form the divisions of each compartment (see Column 2 of Table V).
3) The time passed in the dark box during the 5 minute counting period is determined (see Column 3 of Table 5).
4) The initial latent period is determined, that is to say the time which elapses after the animal is placed in the light box, at the start of the test, before it enters the dark box (see Column 4 of Table 5).
1) Dependency on a given treatment (diazepam, cocaine, alcohol or nicotine) employing daily administration over a period of 7 or 14 days.
Diazepam: 10 mg/kg i.p. twice per day over a period of 7 days.
Cocaine: 1 mg/kg i.p. over a period of 14 days.
Alcohol: Administered at 8% weight/volume in the drinking water over a period of 14 days. Nicotine: 0.1 mg/kg i.p. twice per day over a period of 7 days.
3) Other different groups receive, in addition to diazepam, cocaine, alcohol or nicotine, a concomitant treatment with products which are the subject of the present invention and, by way of comparison, with buspirone or ipsapirone.
The product described and the doses tested were: 4,5-dichloro-2-methyl-1-{4-[4-(2-pyrimidinyl)-1-piperazinyl]-butyl}-1H-imidazole citrate.
1 μg/kg p.o. twice per day.

[1] = 24 h after stopping alcohol (alone, or with the named product; Ex. 42 at 1 μg/kg p.o. twice per day)
[2] = 24 h after stopping cocaine (alone, or with the named product; Ex. 42 at 1 μg/kg p.o. twice per day)
[3] = 24 h after stopping diazepam (alone, or with the named product; Ex. 42 at 1 μg/kg p.o. twice per day)
[4] = 24 h after stopping nicotine (alone, or with the named product; Ex. 42 at 1 μg/kg p.o. twice per day)

For `Cc1nc(Cl)c(Cl)n1CCCCN1CCN(c2ncccn2)CC1.O=C(O)CC(O)(CC(=O)O)C(=O)O` [Example 42, 4,5-dichloro-2-methyl-1-{4-[4-(2-pyrimidinyl)-1-piperazinyl]-butyl}-1H-imidazole citrate], the “Activity within 5 min period, dark box (D)” value [1] was 23, the “Activity within 5 min period, light box (L)” value [1] was 97 and the “Latent period L-D” value [1] was 20. The “Number of times standing erect within 5 min. period, dark box (D)” value (“Number … (D)” for short) [1] was 17, the “Number of times standing erect within 5 min. period, light box (L)” value (“Number … (L)” for short) [1] was 86 and the “Time in box, dark (D)” value [1] was 26. For the same compound, the “Activity within 5 min period, dark box (D)” value [2] was 23, the “Activity within 5 min period, light box (L)” value [2] was 92 and the “Latent period L-D” value [2] was 26. The “Number … (D)” value [2] was 20, the “Number … (L)” value [2] was 86 and the “Time in box, dark (D)” value [2] was 30. The “Activity within 5 min period, dark box (D)” value [3] was 19, the “Activity within 5 min period, light box (L)” value [3] was 96 and the “Latent period L-D” value [3] was 28. For the same compound, the “Number … (D)” value [3] was 17, the “Number … (L)” value [3] was 85 and the “Time in box, dark (D)” value [3] was 36. For the same compound, the “Activity within 5 min period, dark box (D)” value [4] was 20, the “Activity within 5 min period, light box (L)” value [4] was 102 and the “Latent period L-D” value [4] was 23. For the same compound, the “Number … (D)” value [4] was 18, the “Number … (L)” value [4] was 90 and the “Time in box, dark (D)” value [4] was 29. For the same compound, the “anxiolytic response when the administration is stopped” value (diazepam, cocaine, alcohol or nicotine stopped, 1 μg/kg p.o. twice per day) was “maintains a significant anxiolytic response” and the “inhibition of the abstinence syndrome” value (induced by diazepam, cocaine, alcohol and nicotine, 1 μg/kg p.o. twice per day) was “inhibits the abstinence syndrome”.
